Columns and labels:
Test in all cases: relative viability (nuclei count vs DMSO), 5 days (fraction); higher = more cells survive
Irinotecan + Dasatinib = compound: CCc1c2c(nc3ccc(OC(=O)N4CCC(N5CCCCC5)CC4)cc13)-c1cc3c(c(=O)n1C2)COC(=O)[C@]3(O)CC [Irinotecan] + Cc1nc(Nc2ncc(C(=O)Nc3c(C)cccc3Cl)s2)cc(N2CCN(CCO)CC2)n1 [Dasatinib] (partner 0.075 µM)
Summary of the method: (§1)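 One day after seeding in 1536-well plates, lung cancer cell lines were dosed by pin tool. Dosing was either single-drug or a fixed anchor-drug dose plus five library-drug doses (not always all listed) in √10 steps. After 5 days, nuclei were stained in one fix-and-stain step and counted on 4× images, and relative viability is the nuclei count of treated wells over that of vehicle wells, given as the median of duplicate plates.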

RU-SKI 43 + Decitabine = compound: CC[C@@H](C)CNCC(=O)N1CCC2=C([C@@H]1COC3=CC=CC(=C3)C)C=CS2 [RU-SKI 43] + Nc1ncn([C@H]2C[C@H](O)[C@@H](CO)O2)c(=O)n1 [Decitabine] (partner 2 µM)
Summary of the method: as §1

MK-8033 + Bortezomib = compound: Cn1cc(-c2cnc3ccc4ccc(CS(=O)(=O)NCc5ccccn5)cc4c(=O)c3c2)cn1 [MK-8033] + CC(C)C[C@H](NC(=O)[C@H](Cc1ccccc1)NC(=O)c1cnccn1)B(O)O [Bortezomib] (partner 0.002 µM)
Summary of the method: as §1

MK-8033 + Trametinib = compound: Cn1cc(-c2cnc3ccc4ccc(CS(=O)(=O)NCc5ccccn5)cc4c(=O)c3c2)cn1 [MK-8033] + CC(=O)Nc1cccc(-n2c(=O)n(C3CC3)c(=O)c3c(Nc4ccc(I)cc4F)n(C)c(=O)c(C)c32)c1 [Trametinib] (partner 0.02 µM)
Summary of the method: as §1

Cell Line	relative viability (Irinotecan + Dasatinib; first compound 0.6325 µM)	relative viability (Irinotecan + Dasatinib; first compound 2 µM)	relative viability (Irinotecan + Dasatinib; first compound 6.325 µM)	relative viability (Irinotecan + Dasatinib; first compound 20 µM)	relative viability (RU-SKI 43 + Decitabine; first compound 0.1 µM)	relative viability (RU-SKI 43 + Decitabine; first compound 0.3162 µM)	relative viability (RU-SKI 43 + Decitabine; first compound 1 µM)	relative viability (RU-SKI 43 + Decitabine; first compound 3.162 µM)	relative viability (RU-SKI 43 + Decitabine; first compound 10 µM)	relative viability (MK-8033 + Bortezomib; first compound 0.02 µM)	relative viability (MK-8033 + Bortezomib; first compound 0.06325 µM)	relative viability (MK-8033 + Bortezomib; first compound 0.2 µM)	relative viability (MK-8033 + Bortezomib; first compound 0.6325 µM)	relative viability (MK-8033 + Bortezomib; first compound 2 µM)	relative viability (MK-8033 + Trametinib; first compound 0.02 µM)	relative viability (MK-8033 + Trametinib; first compound 0.06325 µM)	relative viability (MK-8033 + Trametinib; first compound 0.2 µM)	relative viability (MK-8033 + Trametinib; first compound 0.6325 µM)	relative viability (MK-8033 + Trametinib; first compound 2 µM)
NCI-H1993	0.549	0.601	0.484	0.603	0.547	0.578	0.517	1.1	0.643	0.498	0.804	0.794	0.816	0.853	0.55	0.506	0.427	0.469	0.456
ChaGo-K-1	0.351	0.474	0.236	0.178	0.543	0.559	0.518	0.551	0.501	1.37	0.756	0.98	1.02	0.926	0.877	0.717	0.802	0.886	0.729
COR-L23	0.271	0.272	0.239	0.0978	0.428	0.369	0.448	0.514	0.433	0.966	0.797	0.868	0.971	1.02	0.607	0.576	0.602	0.572	0.523
NCI-H2347	0.307	0.242	0.245	0.372	0.604	0.542	0.651	0.617	0.636	1.1	0.999	0.846	1.03	1.08	0.326	0.344	0.295	0.287	0.281
LU99A	0.303	0.322	0.248	0.177	0.746	1.1	1.05	0.91	0.711	1.32	1.09	1.09	1.13	1.12	0.582	0.48	0.492	0.582	0.503
COR-L 105	0.376	0.42	0.333	0.182	0.625	0.674	0.703	0.629	0.625	0.852	0.735	0.79	0.945	0.93	0.514	0.392	0.427	0.434	0.356
PC-3 [JPC-3]	0.882	0.915	0.693	0.345	0.789	0.894	0.804	0.852	0.749	0.813	–	0.778	0.848	0.943	0.599	–	0.68	0.708	0.666
NCI-H2009	0.284	0.287	0.182	0.116	0.374	0.332	0.364	0.376	0.283	1.03	1.09	0.954	0.95	0.984	0.282	0.255	0.215	0.291	0.238
HCC-366	0.362	0.429	0.0758	0.0603	0.3	0.399	0.328	0.354	0.352	1.07	1	0.96	1.18	1.05	0.43	0.346	0.314	0.279	0.362
HARA	0.109	0.188	0.114	0.121	0.497	0.682	0.566	0.46	0.47	1.07	1.1	1.13	1.17	1.07	0.509	0.525	0.825	0.423	0.689
NCI-H1792	0.803	0.747	0.506	0.192	0.392	0.667	0.682	0.728	0.561	1	0.96	0.966	0.525	0.954	0.536	0.33	0.352	0.437	0.36
HCC-827	0.459	0.219	0.247	0.227	0.336	0.269	0.395	0.288	0.315	1.06	1.01	1.05	1.08	1.04	0.578	–	0.534	0.547	0.605
LXF-289	0.138	0.265	0.172	0.139	0.373	0.357	0.384	0.41	0.388	0.989	0.964	0.985	0.999	0.978	0.702	0.616	0.685	0.711	0.659
NCI-H460	0.402	0.301	0.0681	0.0459	0.446	0.698	0.547	0.475	0.379	0.908	1.08	1.06	1.28	1.17	0.116	0.0888	0.0918	0.155	0.0855
NCI-H2023	0.595	0.67	0.241	0.0645	0.211	0.254	0.22	0.246	0.237	1.06	0.89	0.852	0.96	0.778	0.552	0.511	0.453	0.475	0.366
PC-14	0.273	0.244	0.127	0.088	0.248	0.219	0.225	0.218	0.203	0.898	0.742	0.816	0.809	0.772	0.723	0.604	0.649	0.774	0.654
NCI-H1734	–	0.385	0.218	0.155	0.522	0.544	0.598	0.487	0.473	1.14	0.814	0.871	0.898	0.916	0.655	0.594	0.712	0.636	0.687

Cell Line	relative viability (Irinotecan + Dasatinib; first compound 0.6325 µM)	relative viability (Irinotecan + Dasatinib; first compound 2 µM)	relative viability (Irinotecan + Dasatinib; first compound 6.325 µM)	relative viability (Irinotecan + Dasatinib; first compound 20 µM)	relative viability (RU-SKI 43 + Decitabine; first compound 0.1 µM)	relative viability (RU-SKI 43 + Decitabine; first compound 0.3162 µM)	relative viability (RU-SKI 43 + Decitabine; first compound 1 µM)	relative viability (RU-SKI 43 + Decitabine; first compound 3.162 µM)	relative viability (RU-SKI 43 + Decitabine; first compound 10 µM)	relative viability (MK-8033 + Bortezomib; first compound 0.02 µM)	relative viability (MK-8033 + Bortezomib; first compound 0.06325 µM)	relative viability (MK-8033 + Bortezomib; first compound 0.2 µM)	relative viability (MK-8033 + Bortezomib; first compound 0.6325 µM)	relative viability (MK-8033 + Bortezomib; first compound 2 µM)	relative viability (MK-8033 + Trametinib; first compound 0.02 µM)	relative viability (MK-8033 + Trametinib; first compound 0.06325 µM)	relative viability (MK-8033 + Trametinib; first compound 0.2 µM)	relative viability (MK-8033 + Trametinib; first compound 0.6325 µM)	relative viability (MK-8033 + Trametinib; first compound 2 µM)
NCI-H727	0.243	0.467	0.437	0.438	–	0.805	0.882	0.834	0.972	0.873	0.62	0.882	0.993	0.857	0.371	0.358	0.339	0.393	0.429
HOP-62	0.549	0.589	0.276	0.201	0.231	0.179	0.248	0.202	0.209	0.932	0.85	0.333	0.555	0.897	0.315	0.381	0.344	0.371	0.35
NCI-H2405	–	0.218	0.198	0.18	0.704	0.778	0.681	0.808	0.688	1	0.961	0.932	0.771	1.03	0.601	0.619	0.496	0.603	0.667
A-427	–	0.535	0.211	0.16	0.555	0.477	0.568	0.551	0.538	0.98	1.11	1.02	0.968	0.954	0.775	0.719	0.696	0.752	0.781
LCLC-97TM1	0.711	0.589	0.121	0.132	0.24	0.239	0.243	0.237	0.246	1.14	0.616	0.597	0.654	0.499	0.181	0.19	–	0.207	0.209
NCI-H3122	0.142	0.619	0.149	0.117	0.365	0.478	0.469	0.413	0.391	1.08	1.01	0.982	0.999	0.941	0.262	0.247	0.21	0.238	0.3
RERF-LC-KJ	0.805	0.725	0.449	0.158	0.782	0.832	0.69	0.681	0.58	1.08	1.21	1.04	1.19	1.03	0.818	0.843	0.812	0.828	0.812
HCC-15	–	0.523	0.196	0.123	0.545	0.688	0.732	0.606	0.587	1.04	1.01	0.99	1.05	0.952	0.387	0.369	0.322	0.351	0.368
SK-LU-1	0.188	0.19	0.207	0.173	0.571	0.684	0.612	0.593	0.535	1.31	0.955	1.32	0.883	1.18	0.484	0.482	0.437	0.445	0.468
H3255	0.443	0.292	0.358	0.387	0.564	0.697	0.683	0.619	0.579	0.846	0.585	0.822	0.825	0.705	0.598	–	0.562	0.656	0.532
NCI-H1666	0.864	0.657	0.486	0.348	0.739	0.794	0.721	0.643	0.665	0.766	0.722	0.886	0.822	0.806	0.846	0.777	0.862	0.787	0.855
201T	–	0.552	0.529	0.36	0.838	0.824	0.854	0.856	0.831	1.13	1.09	1.08	1.07	1.12	0.778	0.76	0.709	0.782	0.73
NCI-H1755	0.373	0.45	0.308	0.271	0.714	0.798	0.758	0.715	0.755	0.987	0.834	0.933	0.849	0.835	0.804	0.767	0.74	0.702	0.732
LOU-NH91	0.525	0.548	0.31	0.361	0.786	0.828	0.809	0.805	0.824	0.455	0.559	0.511	0.554	0.495	0.761	0.73	0.756	0.789	0.792
NCI-H1975	0.28	0.469	0.305	0.155	0.346	0.377	0.439	0.381	0.276	0.386	0.328	0.365	0.429	0.367	0.357	0.301	0.279	0.239	0.405
NCI-H650	0.34	0.396	0.215	0.245	0.281	0.335	–	0.311	0.312	0.858	0.745	0.737	0.794	0.886	1.06	1.02	0.973	0.939	0.884
SW 1573	0.317	0.544	0.161	0.108	0.483	0.594	0.51	0.532	0.433	1.08	–	0.902	0.988	1.05	0.471	0.504	0.573	0.582	0.568

— the supplement of paper PMC10307832
